Laboratory results as given in ChEMBL document CHEMBL1201862, “PubChem BioAssay data set” (2004).
Active and inactive are the calls of the source.

Columns and labels:
Estrogen receptor beta [1] = target: T1, Estrogen receptor beta (Homo sapiens, UniProt Q92731); test: ERβ–SRC-3 coactivator interaction inhibitors, confirmation, orthogonal assay, biochemical, ELISA, streptavidin-HRP readout (AID 1060)
[2] = inhibitors of firefly luciferase expression or activity, dose response, H4 neuroglioma cells, luminescence (AID 1990); format: functional, cell-based
Estrogen receptor beta [3] = target: T1, Estrogen receptor beta
[4] = Luminescence Cell-Based Dose Response HTS to Identify Inhibitors of 5'UTR Stem-Loop Driven Prion Protein mRNA Translation in H4 Neuroglioblastoma Cells. [Related pubchem assays: 1827 (Project Summary), 1813 (Primary HTS)]; format: functional
[5] = inhibitors of SNCA 5'UTR-driven reporter translation, confirmation, H4 neuroglioma cells, luminescence (AID 1988); format: functional, cell-based
[6] = target: Melanin-concentrating hormone receptor 1 (Homo sapiens, UniProt Q99705); test: Fluorescence-based counterscreen for antagonists of the G-protein coupled receptor 7 (GPR7): cell-based high throughput dose response assay to identify antagonists of the melanin-concentrating hormone receptor 1 (MCHR1).; format: functional
Sequence of Melanin-concentrating hormone receptor 1 (Q99705 whole entry): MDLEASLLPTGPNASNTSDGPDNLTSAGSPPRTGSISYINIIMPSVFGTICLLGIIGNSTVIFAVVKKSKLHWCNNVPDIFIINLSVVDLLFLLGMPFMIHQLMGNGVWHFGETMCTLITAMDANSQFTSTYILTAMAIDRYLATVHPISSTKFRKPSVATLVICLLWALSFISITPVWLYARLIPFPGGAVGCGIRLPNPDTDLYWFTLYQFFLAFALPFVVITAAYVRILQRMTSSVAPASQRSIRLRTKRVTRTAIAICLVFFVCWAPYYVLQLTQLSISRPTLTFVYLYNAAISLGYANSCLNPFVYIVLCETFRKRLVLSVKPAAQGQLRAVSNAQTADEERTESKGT

[7] = target: T2, Neuropeptides B/W receptor type 1 (Homo sapiens, UniProt P48145); test: Fluorescence-based dose response cell-based high throughput screening assay to identify antagonists of the G-protein coupled receptor 7 (GPR7). [Related pubchem assays: 1952 (Screening assay (GPR7 antagonists).), 1880 (Summary AID.)]; format: functional
T2 sequence (P48145 whole entry): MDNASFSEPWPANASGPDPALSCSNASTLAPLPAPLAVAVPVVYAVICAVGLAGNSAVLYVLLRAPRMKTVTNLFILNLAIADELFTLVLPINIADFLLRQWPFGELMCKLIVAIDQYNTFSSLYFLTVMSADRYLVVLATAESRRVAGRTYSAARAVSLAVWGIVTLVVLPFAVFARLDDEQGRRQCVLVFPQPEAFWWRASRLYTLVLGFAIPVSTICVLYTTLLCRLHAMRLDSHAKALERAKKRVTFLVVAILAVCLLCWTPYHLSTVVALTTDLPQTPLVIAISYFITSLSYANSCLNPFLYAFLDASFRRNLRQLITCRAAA

[8] = cytotoxicity toward NIH3T3 fibroblasts, dose response, counter-screen, cell-based, ATP luminescence, mouse fibroblasts (AID 2010); format: functional;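 note: cells exposed to compound for about 90 hours before reading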
cells [9] = test: cells
[10] = inhibitors of intracellular T. cruzi replication, confirmation, NIH3T3 host cells, beta-gal luminescence (AID 2044); format: functional, cell-based;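 note: intracellular parasites grown in NIH/3T3 mouse fibroblasts as host cells; luminescent beta-galactosidase reporter signal from transgenic T. cruzi replicating inside host cells; inhibitors lower the luminescence signal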
[11] = target: T3, Eukaryotic translation initiation factor 2-alpha kinase 3 (Homo sapiens, UniProt Q9NZJ5); test: Counterscreen assay for PERK inhibitors: Dose response cell-based high throughput screening assay to measure inhibition of PERK at 6 hours. [Related pubchem assays: 1522, 1416 ]; format: functional
T3 sequence (Q9NZJ5 whole entry): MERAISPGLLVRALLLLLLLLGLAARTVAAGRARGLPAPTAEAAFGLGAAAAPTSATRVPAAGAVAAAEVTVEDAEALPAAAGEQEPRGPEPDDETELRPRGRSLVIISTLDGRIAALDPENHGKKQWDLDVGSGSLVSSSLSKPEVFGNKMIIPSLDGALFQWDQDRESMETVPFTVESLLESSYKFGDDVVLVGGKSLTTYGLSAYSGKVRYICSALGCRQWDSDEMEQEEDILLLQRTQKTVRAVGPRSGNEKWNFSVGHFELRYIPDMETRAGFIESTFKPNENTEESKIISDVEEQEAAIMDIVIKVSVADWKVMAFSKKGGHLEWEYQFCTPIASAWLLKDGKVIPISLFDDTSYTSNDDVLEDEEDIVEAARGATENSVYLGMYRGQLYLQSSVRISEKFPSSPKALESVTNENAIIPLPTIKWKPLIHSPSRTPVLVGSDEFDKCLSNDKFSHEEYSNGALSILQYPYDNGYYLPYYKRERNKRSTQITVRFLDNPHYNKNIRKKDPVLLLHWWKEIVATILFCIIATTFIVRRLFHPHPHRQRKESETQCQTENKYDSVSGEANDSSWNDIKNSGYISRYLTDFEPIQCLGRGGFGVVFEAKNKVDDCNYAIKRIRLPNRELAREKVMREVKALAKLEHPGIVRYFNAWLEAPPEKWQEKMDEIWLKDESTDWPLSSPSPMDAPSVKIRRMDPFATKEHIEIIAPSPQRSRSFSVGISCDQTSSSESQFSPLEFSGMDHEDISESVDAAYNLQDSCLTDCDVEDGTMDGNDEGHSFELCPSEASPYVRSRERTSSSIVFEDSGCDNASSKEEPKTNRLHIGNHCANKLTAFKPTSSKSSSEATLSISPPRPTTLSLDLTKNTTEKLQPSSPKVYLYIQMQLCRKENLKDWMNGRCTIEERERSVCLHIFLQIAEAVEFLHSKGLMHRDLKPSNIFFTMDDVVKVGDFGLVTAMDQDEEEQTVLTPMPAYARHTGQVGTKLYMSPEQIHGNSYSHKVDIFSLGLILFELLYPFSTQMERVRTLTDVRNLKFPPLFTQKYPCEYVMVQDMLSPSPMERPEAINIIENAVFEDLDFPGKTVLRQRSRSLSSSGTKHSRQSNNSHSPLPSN

[12] = target: T3, Eukaryotic translation initiation factor 2-alpha kinase 3; test: Dose response cell-based high-throughput screening assay to measure PERK inhibition. [Related pubchem assays: 1416 ]; format: functional
cells [13] = format: functional, cell-based
[14] = inhibitors of SNCA 5'UTR-driven translation, confirmation, luminescence, H4 neuroglioblastoma cells, dose confirmation (AID 2454); format: functional, cell-based;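 note: H4 neuroglioblastoma cells carrying an alpha-synuclein 5'UTR luciferase reporter; potency for inhibition of the luciferase signal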
[15] = growth suppression of PTEN-null colon cells, dose response, cell-based, HCT116 PTEN knockout (AID 1047); format: functional;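 note: HCT116 colon tumor cells with PTEN knocked out; cells exposed to compound for 60 hours before readout; potency for loss of cell viability measured by luminescence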
[16] = luciferase reporter signal reduction – luminescence, H4-C neuroglioblastoma cells, dose response (AID 2458); format: functional, cell-based;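 note: H4 neuroglioblastoma cells stably carrying a luciferase reporter gene fusion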
[17] = cytotoxicity in HEK-293T cells, dose response, cytotoxicity control for TCR NF-kB inhibitor project, luminescence, T-cell screen hits (AID 489026); format: functional, cell-based;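 note: cells exposed to compound about 14 hours before the viability readout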
[18] = growth suppression of beta-catenin-knockout colon cells, dose response, cell-based, HCT116, human colon tumor (AID 1045); format: functional;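 note: HCT116 colon tumor cells with beta catenin knocked out; cells exposed to compound for 60 hours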

T1 sequence (Q92731 whole entry): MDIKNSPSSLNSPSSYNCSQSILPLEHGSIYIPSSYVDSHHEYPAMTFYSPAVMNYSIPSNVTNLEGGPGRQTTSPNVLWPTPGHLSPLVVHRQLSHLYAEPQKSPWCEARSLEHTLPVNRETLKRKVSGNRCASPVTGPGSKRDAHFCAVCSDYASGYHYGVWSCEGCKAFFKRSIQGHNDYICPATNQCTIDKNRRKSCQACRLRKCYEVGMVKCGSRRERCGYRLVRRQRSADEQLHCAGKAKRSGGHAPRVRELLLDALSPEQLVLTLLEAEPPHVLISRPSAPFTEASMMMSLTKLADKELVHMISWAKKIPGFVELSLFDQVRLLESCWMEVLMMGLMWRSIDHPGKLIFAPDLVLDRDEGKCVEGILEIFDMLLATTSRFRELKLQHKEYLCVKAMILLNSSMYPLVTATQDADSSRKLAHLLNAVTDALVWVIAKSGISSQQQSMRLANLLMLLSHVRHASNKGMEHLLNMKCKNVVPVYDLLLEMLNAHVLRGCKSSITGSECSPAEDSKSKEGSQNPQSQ

Question: With Oc1ccccc1-c1nnc(SCCN2CCOCC2)n1Cc1ccccc1 as the compound, how does the IC50 (Estrogen receptor beta [1]) read?
Answer: < 0.023 µM (not active)

Question: And the EC50 [2]?
Answer: 9.74 µM (active)

Question: What about the IC50 (Estrogen receptor beta [3]) of the same compound?
Answer: 3.51 µM (active)

Question: And the EC50 [4]?
Answer: 8.21 µM (active)

Question: What about the EC50 [5] of the same compound?
Answer: 7.29 µM (active)

Question: With O=c1[nH]c2ccccc2c(=O)n1Cc1ccco1 as the compound, how does the IC50 (Estrogen receptor beta [3]) read?
Answer: > 50 µM (not active)

Question: For Cc1ccc(-n2c(SCC(N)=O)nnc2-c2ccc(S(=O)(=O)N3CCCCC3)cc2)c(C)c1, which IC50 [6] is on record?
Answer: 29.6 µM (not active)

Question: What about the IC50 [7] of the same compound?
Answer: 5.29 µM (active)

Question: What does the source list for CCc1ccc(CN2CCCC(CNC(=O)c3cccc(OC)c3OC)C2)cc1 (stereo unspecified)?
Answer: EC50 [8]: > 60 µM (not active); EC50 (cells [9]): 0.37 µM (active); EC50 [10]: < 0.1 µM (active)

Question: For COC(=O)C(NC(C)=O)(Nc1ccc(C)cn1)C(F)(F)F (stereo unspecified), which EC50 [11] is on record?
Answer: > 55.7 µM (not active)

Question: What about the EC50 [12] of the same compound?
Answer: > 55.7 µM (not active)

Question: With CCn1c2ccccc2c2cc(Nc3cc(C)nc4ncnn34)ccc21 as the compound, how does the EC50 (cells [13]) read?
Answer: 0.255 µM (active)

Question: What about the EC50 [14] of the same compound?
Answer: 0.354 µM (active)

Question: And the EC50 [2]?
Answer: < 0.1 µM (active)

Question: What about the EC50 [15] of the same compound?
Answer: < 0.059 µM (active)

Question: And the EC50 [16]?
Answer: 0.265 µM (active)

Question: And the IC50 [17]?
Answer: 43.4 µM (inactive)

Question: What about the EC50 [18] of the same compound?
Answer: < 0.059 µM (active)

Question: And the EC50 [5]?
Answer: < 0.1 µM (active)
